Test results taken from patent publication US20150260723A1, “COMPANION DIAGNOSTICS FOR TEC FAMILY KINASE INHIBITOR THERAPY” (PHARMACYCLICS, INC., priority 2012, published 2015).
Values joined by “and” are separate entries in the source; they are usually repeats but may differ in a detail not shown here. Identical values can stand only once.

Assays:
BLK = target: T1, BLK (Homo sapiens, UniProt P51451); experiment: standard kinase inhibition assay performed by Nanosyn; format: biochemical; settings: [Enzyme] 0.4 nM, [ATP] 20 μM, inc time 1 hr
T1 construct: purchased BPS 40401
Procedure: (§1) The following kinases were assayed according the table 4 below:
(§2) Compounds were tested in singlicates using 12 pt (3×-dilutions) dose response format with top concentration of 10 mM or 1 mM.

BMX = target: T2, BMX (Homo sapiens, UniProt P51813); experiment: as above; format: biochemical; settings: [Enzyme] 1.82 nM, [ATP] 75 μM, inc time 1 hr
T2 construct: purchased BPS 40402
T2 sequence (P51813 1-675): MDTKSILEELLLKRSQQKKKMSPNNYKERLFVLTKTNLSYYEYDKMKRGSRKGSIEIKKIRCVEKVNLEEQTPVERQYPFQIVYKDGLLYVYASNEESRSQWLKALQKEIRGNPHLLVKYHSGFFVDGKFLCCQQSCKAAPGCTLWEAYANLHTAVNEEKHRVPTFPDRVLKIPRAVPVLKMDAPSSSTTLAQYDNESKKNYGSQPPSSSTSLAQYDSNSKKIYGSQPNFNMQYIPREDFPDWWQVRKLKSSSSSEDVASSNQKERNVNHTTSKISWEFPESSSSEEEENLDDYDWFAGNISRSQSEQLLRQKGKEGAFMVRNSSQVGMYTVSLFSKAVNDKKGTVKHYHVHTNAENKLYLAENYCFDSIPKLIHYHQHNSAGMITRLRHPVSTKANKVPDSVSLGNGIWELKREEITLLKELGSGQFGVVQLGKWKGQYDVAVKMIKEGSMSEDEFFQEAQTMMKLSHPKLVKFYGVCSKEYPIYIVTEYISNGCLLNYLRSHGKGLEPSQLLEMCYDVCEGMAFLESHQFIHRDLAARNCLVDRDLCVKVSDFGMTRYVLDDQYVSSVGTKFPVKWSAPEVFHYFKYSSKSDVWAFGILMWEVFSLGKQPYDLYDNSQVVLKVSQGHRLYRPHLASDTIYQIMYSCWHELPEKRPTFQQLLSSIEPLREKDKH
Procedure: as §1, §2

BTK [1] = target: T3, BTK (Homo sapiens, UniProt Q06187); experiment: as above; format: biochemical; settings: [Enzyme] 0.95 nM, [ATP] 20 μM, inc time 1 hr
Procedure: as §1, §2

ITK = target: T4, ITK (Homo sapiens, UniProt Q08881); experiment: as above; format: biochemical; settings: [Enzyme] 1 nM, [ATP] 50 μM, inc time 3 hr
T4 construct: endogenous in cells; host or cells: Jurkat cell lysate
T4 sequence (Q08881 1-620): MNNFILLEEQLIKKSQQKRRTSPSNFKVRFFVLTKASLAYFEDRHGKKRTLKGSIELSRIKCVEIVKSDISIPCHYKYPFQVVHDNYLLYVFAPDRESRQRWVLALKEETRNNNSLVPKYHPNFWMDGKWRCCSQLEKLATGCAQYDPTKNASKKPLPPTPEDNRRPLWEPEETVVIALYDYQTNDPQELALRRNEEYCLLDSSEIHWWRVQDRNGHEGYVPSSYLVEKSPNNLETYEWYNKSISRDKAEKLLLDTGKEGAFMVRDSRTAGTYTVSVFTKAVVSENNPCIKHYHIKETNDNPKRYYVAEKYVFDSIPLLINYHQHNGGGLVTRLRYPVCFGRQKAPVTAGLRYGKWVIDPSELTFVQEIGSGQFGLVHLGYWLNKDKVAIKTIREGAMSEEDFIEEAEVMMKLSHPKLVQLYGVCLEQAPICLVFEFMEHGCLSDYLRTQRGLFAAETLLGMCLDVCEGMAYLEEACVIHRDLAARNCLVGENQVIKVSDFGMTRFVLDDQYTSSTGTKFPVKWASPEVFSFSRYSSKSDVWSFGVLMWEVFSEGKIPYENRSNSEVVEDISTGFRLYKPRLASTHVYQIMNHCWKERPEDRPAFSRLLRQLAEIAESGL
Procedure: as §1, §2

JAK3 = target: T5, JAK3 (Homo sapiens, UniProt P52333); experiment: as above; format: biochemical; settings: [Enzyme] 2 nM, [ATP] 2 μM, inc time 3 hr
T5 construct: purchased INVITROGEN PV3855
Procedure: as §1, §2

LCK = target: T6, LCK (Homo sapiens, UniProt P06239); experiment: as above; format: biochemical; settings: [Enzyme] 0.4 nM, [ATP] 50 μM, inc time 1 hr
T6 construct: purchased INVITROGEN P3043
Procedure: as §1, §2

SRC = target: T7, SRC (Homo sapiens, UniProt P12931); experiment: as above; format: biochemical; settings: [Enzyme] 3 nM, [ATP] 25 μM, inc time 1 hr
T7 construct: purchased INVITROGEN P3044
Procedure: as §1, §2

TEC = target: T8, TEC (Homo sapiens, UniProt P42680); experiment: as above; format: biochemical; settings: [Enzyme] 4.6 nM, [ATP] 12 μM, inc time 1 hr
T8 construct: purchased Millipore 14-801
T8 sequence (P42680 1-631): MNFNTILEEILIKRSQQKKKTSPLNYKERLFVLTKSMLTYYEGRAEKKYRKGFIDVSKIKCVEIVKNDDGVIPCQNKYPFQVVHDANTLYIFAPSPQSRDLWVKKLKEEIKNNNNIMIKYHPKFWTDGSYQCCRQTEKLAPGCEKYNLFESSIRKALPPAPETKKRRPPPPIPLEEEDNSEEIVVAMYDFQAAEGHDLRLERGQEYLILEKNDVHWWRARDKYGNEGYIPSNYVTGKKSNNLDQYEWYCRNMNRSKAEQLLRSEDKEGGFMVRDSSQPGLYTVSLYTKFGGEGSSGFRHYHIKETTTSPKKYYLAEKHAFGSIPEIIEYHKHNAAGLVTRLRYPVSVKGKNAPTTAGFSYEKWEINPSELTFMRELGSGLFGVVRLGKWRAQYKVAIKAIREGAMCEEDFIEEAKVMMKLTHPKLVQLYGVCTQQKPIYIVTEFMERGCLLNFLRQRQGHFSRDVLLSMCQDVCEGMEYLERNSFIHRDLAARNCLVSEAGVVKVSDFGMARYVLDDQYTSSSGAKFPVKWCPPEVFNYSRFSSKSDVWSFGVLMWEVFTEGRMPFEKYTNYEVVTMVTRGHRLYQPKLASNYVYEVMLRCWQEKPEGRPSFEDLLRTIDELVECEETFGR
Procedure: as §1, §2

BTK [2] = target: T3, BTK; experiment: Comparison of biotinylated probes, streptavidin coated plate BTK occupancy assay; format: binding; design: Positive Control lysates from BTK expressing cell line (DOHH2); endogenous in cells; host or cells: DOHH2 cell lysate; settings: DOHH2 lysate, high and low probe concentrations
Procedure: Selected biotinylated probes were tested for use in target occupancy assays using either the anti-protein antibody coated plate or streptavidin coated plate assay formats. The following probes were tested:
Stock solutions (5 mM and 10 mM) of the probes were prepared as follows. […] For the assays 50× probe was prepared fresh the day of the assay: 1 μl of 5 mM probe to […] PBS.
1) Dilute lysate to desired concentration with PBS to final volume of 500 μl
2) Add Biotinylated probe (final concentration 2.5 μM) to lysate, 37 C for 1 hr
3) Block streptavidin plate w/ 1% BSA, RT, 1 hr, wash w/ PBST 3×
4) Stop reaction by transfer samples onto ice for 10 min, then bring back to RT
5) Add 100 ul treated lysate (in triplicate) to streptavidin plate, RT, 2 hr w/ rocking
6) Wash with 200 μl PBST, 5×
7) Add 100 μl 2nd Ab-HRP, incubate at RT for 1 hr
8) Wash with 200 μl PBST, 3×
9) Add 100 μl TMB, incubate at RT for 10 min
10) Add 50 μl stop solution

T3 sequence (Q06187 whole entry): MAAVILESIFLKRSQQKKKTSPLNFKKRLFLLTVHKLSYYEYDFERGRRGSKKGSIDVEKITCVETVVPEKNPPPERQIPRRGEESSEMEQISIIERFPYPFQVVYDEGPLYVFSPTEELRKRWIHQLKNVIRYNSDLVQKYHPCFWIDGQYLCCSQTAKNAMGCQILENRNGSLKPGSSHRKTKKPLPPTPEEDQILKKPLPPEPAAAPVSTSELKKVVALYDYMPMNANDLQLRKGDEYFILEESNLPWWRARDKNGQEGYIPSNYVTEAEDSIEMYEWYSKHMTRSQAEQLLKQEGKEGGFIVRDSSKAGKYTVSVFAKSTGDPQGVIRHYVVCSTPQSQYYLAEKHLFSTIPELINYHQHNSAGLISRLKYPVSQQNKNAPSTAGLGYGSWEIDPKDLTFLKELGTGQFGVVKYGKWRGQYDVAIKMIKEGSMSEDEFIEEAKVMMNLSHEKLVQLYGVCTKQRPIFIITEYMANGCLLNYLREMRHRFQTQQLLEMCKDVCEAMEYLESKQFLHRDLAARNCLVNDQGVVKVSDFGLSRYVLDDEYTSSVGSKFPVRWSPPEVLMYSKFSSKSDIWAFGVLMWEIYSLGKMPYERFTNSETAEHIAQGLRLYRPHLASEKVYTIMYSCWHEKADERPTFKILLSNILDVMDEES
T5 sequence (P52333 781-1124 limits assumed): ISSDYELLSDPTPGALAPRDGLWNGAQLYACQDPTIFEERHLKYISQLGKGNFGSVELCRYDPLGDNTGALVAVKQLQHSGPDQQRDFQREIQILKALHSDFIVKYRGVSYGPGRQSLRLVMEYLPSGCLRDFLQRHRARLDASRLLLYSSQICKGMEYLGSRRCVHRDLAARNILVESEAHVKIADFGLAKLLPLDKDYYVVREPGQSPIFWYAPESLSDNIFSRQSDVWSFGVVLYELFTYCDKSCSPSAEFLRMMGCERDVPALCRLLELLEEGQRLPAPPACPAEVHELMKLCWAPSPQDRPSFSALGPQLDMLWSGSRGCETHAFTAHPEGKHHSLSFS
T6 sequence (P06239 whole entry): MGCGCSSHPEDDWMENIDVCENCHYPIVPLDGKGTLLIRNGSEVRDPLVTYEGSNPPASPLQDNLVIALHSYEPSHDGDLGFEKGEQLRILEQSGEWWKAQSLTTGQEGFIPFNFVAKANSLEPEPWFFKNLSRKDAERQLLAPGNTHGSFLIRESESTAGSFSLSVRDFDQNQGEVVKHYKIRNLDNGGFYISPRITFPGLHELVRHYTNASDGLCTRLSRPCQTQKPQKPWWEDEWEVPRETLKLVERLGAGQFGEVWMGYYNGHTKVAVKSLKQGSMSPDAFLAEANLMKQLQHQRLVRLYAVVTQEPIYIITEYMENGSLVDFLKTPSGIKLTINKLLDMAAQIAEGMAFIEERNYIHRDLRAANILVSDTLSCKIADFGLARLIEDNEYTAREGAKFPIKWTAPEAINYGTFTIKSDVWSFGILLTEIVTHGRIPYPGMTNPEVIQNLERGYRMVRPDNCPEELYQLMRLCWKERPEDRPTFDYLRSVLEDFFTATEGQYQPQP
T1 sequence (P51451 whole entry): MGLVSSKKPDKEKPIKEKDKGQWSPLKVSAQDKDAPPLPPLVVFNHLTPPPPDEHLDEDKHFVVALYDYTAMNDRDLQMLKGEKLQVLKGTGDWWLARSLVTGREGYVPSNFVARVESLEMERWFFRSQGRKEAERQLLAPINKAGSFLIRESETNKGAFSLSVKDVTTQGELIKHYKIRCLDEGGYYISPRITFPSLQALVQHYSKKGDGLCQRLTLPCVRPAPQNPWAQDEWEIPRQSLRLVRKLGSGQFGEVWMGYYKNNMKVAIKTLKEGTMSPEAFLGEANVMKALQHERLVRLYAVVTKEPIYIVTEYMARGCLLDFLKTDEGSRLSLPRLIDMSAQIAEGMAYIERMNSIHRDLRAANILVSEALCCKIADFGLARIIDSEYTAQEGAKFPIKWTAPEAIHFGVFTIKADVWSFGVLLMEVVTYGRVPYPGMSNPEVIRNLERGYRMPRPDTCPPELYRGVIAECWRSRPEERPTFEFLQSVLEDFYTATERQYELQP
T7 sequence (P12931 whole entry): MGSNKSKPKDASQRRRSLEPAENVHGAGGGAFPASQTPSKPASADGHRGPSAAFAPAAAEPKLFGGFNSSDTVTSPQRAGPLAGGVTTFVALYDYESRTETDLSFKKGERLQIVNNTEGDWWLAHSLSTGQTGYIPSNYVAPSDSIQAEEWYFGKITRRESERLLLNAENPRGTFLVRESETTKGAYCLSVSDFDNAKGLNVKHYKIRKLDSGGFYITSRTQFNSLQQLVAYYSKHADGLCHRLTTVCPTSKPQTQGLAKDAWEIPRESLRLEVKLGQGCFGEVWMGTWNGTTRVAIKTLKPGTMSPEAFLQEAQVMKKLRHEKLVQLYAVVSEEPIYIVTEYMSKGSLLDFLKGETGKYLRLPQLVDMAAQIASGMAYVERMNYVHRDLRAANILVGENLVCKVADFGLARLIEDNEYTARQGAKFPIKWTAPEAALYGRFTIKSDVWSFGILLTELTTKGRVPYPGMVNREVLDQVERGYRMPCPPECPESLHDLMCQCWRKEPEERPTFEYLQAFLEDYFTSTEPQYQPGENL

IC50 (BLK): 4.27 nM and 3.66 nM | IC50 (BMX): 5.57 nM and 4.42 nM | IC50 (BTK [1]): 1.02 nM and 0.755 nM | IC50 (ITK): 198 nM and 187 nM | IC50 (JAK3): 4870 nM and 5340 nM | IC50 (LCK): 6.92 nM and 5.99 nM | IC50 (SRC): 36.3 nM and 33.8 nM | IC50 (TEC): 2.29 nM and 1.71 nM | signal for binding to BTK out of the probes tested (BTK [2]): highest signal
SMILES: CN(C/C=C/C(=O)N1CCC[C@@H](n2nc(-c3ccc(Oc4ccccc4)cc3)c3c(N)ncnc32)C1)CCCCNC(=O)CCCC(=O)NCCCOCCOCCOCCCNC(=O)CCCC[C@@H]1SC[C@@H]2NC(=O)N[C@@H]21 [Compound I-5]
